Earlier results on 1 molecule are cited in EP1362518A1, “Food product providing sustained blood levels of exogenous substances” (NESTEC S.A., priority 2002, dated 2003).

Experiment in data set [1]: not given
This is another data set of the same source.

The subject of data set [2] is dogs. The following applies: 100mg/kg/d (caffeine/body weight/day) consumed for more than 3 days.

As to `Cn1c(=O)c2c(ncn2C)n(C)c1=O` [caffeine], for the setting “adults”, the half-life of caffeine was 3 to 7 h. For the same molecule, the “time of peak in caffeine level in blood” value (after consumption of a cup of coffee) is on record as “about an hour”. In data set [1] (in vivo), the “threshold value for stimulation” value was “about 2 mg/l blood plasma” and the “threshold value of stimulation” value was “about 2 mg/l plasma”. Further, the “upper end of the desired range” value in data set [1] (side effects above this range) is “about 20 mg/l blood plasma”. For the same molecule, the death entry in data set [2] was “death can occur”.
